Assay results as given in patent publication US9315500B2, “Bicyclic heteroaryl cycloalkyldiamine derivatives” (NOVARTIS AG, priority 2012, dated 2016).
pIC50: −log10 of the molar value.

Molecular target: SYK (SYK(2-635)) (Homo sapiens (Human), UniProt P43405)
Assay: SYK enzyme assay (chip based microfluidic mobility shift assay)
Assay type: biochemical
Details: SYK kinase, 4 μM ATP/peptide solution, 30° C., 60 minutes, Caliper mobility shift
Description: A number of compounds of the present invention were assayed in a chip based microfluidic mobility shift assay. All assays were performed in 384 well microtiter plates. Each assay plate contained 8-point serial dilutions for 40 test compounds, as well as four 8-point serial dilutions of staurosporine as reference compound, plus 16 high- and 16 low controls. Liquid handling and incubation steps were done on a Thermo CatX workstation equipped with a Innovadyne Nanodrop Express. Between pipetting steps, tips were cleaned in wash cycles using wash buffer. The assay plates were prepared by addition of 50 nl per well of compound solution in 90% DMSO. The kinase reactions were started by stepwise addition of 4.5 μl per well of peptide/ATP-solution (50 mM HEPES, pH 7.5, 1 mM DTT, 0.02% Tween20, 0.02% BSA, 0.6% DMSO, 10 mM beta-glycerophosphate, and 10 μM sodium orthovanadate, 1 mM MgCl2, 3 mM MnCl2, 4 μM ATP, 4 μM peptide (5-Fluo-Ahx-GAPDYENLQELNKK-Amid) and 4.5 μl per well of enzyme solution (50 mM HEPES, pH 7.5, 1 mM DTT, 0.02% Tween20, 0.02% BSA, 0.6% DMSO, 10 mM beta-glycerophosphate, and 10 μM sodium orthovanadate, 1 mM MgCl2, 3 mM MnCl2, 4 nM SYK (SYK(2-635), produced in-house from insect cells). Kinase reactions were incubated at 30° C. for 60 minutes and subsequently terminated by addition of 16 μl per well of stop solution (100 mM HEPES pH 7.5, 5% DMSO, 0.1% Caliper coating reagent, 10 mM EDTA, and 0.015% Brij35). Plates with terminated kinase reactions were transferred to the Caliper LC3000 workstations for reading. Phosphorylated and unphosphorylated peptides were separated using the Caliper microfluidic mobility shift technology. Briefly, samples from terminated kinase reactions were applied to the chip. Analytes are transported through the chip by constant buffer flow and the migration of the substrate peptide is monitored by the fluorescence signal of its label. Phosphorylated peptide (product) and unphosphorylated peptide (substrate) are separated in an electric field by their charge/mass ratio. Kinase activities were calculated from the amounts of formed phospho-peptide. IC50 values were determined from percent inhibition values at different compound concentrations by non-linear regression analysis.
Test compounds were dissolved in DMSO (10 mM) and transferred into 1.4 mL flat bottom or V-shaped Matrix tubes carrying a unique 2D matrix. The stock solutions were stored at […] if not used immediately. For the test procedure the vials were defrosted and identified by a scanner whereby a working sheet was generated that guided the subsequent working steps.
Compound dilutions were made in 96 well plates. This format enabled the assay of maximally 40 individual test compounds at 8 concentrations (single points) including 4 reference compounds. The dilution protocol included the production of “pre-dilution plates”, “master plates” and “assay plates”.
Pre-dilution plates: 96 polypropylene well plates were used as pre-dilution plates. A total of 4 pre-dilution plates were prepared including 10 test compounds each on the plate positions A1-A10, one standard compound at A11 and one DMSO control at A12. All dilution steps were done on a HamiltonSTAR robot.
Master plates: 30 μL of individual compound dilutions including standard compound and controls of the 4 “pre-dilution plates” were transferred into a 384 “master plate” including the following concentrations 1′810, 362, 72.5, […], 14.5, 2.9, 0.58 and 0.12 μM, respectively in 90% of DMSO.
Assay plates: Identical “assay plates” were then prepared by pipetting 50 nL each of compound dilutions of the “master plates” into 384-well “assay plates” by means of a HummingBird 384-channel dispenser. These plates were used directly for the assay which was performed in a total volume of 9.05 μL. This led to a final compound concentration of 10, 2.0, 0.4, 0.08, 0.016, 0.0032, 0.00064 and 0.000128 μM and a final DMSO concentration of 0.5% in the assay.

SMILES	pIC50
N[C@H]1CCCC[C@H]1Nc1cc2cn[nH]c(=O)c2c(Nc2ccc3cccnc3c2)n1 [Example 2.19, 7-((1R,2S)-2-Amino-cyclohexylamino)-5-(quinolin-7-ylamino)-3H-pyrido[3,4-d]pyridazin-4-one]	7.38
N[C@H]1CCCC[C@H]1Nc1nc(Nc2cccc3ncccc23)c2c(=O)[nH]ncc2c1F [Example 1.2, 7-((1R,2S)-2-Amino-cyclohexylamino)-8-fluoro-5-(quinolin-5-ylamino)-3H-pyrido[3,4-d]pyridazin-4-one]	7.36
N[C@H]1CCCC[C@H]1Nc1cc2cn[nH]c(=O)c2c(Nc2cccc3[nH]ncc23)n1 [Example 2.10, 7-((1R,2S)-2-Amino-cyclohexylamino)-5-(1H-indazol-4-ylamino)-3H-pyrido[3,4-d]pyridazin-4-one]	8.28
Cc1c[nH]c2c(Nc3nc(N[C@@H]4CCCC[C@@H]4N)c(F)c4cn[nH]c(=O)c34)cc(F)cc12 [Example 1.1, 7-((1R,2S)-2-Amino-cyclohexylamino)-8-fluoro-5-(5-fluoro-3-methyl-1H-indol-7-ylamino)-3H-pyrido[3,4-d]pyridazin-4-one]	8.70
Cc1ccc(Nc2nc(N[C@@H]3CCCC[C@@H]3N)cc3cn[nH]c(=O)c23)c2cc[nH]c12 [Example 2.15, 7-((1R,2S)-2-Amino-cyclohexylamino)-5-(7-methyl-1H-indol-4-ylamino)-3H-pyrido[3,4-d]pyridazin-4-one]	8.05
N[C@H]1CCCC[C@H]1Nc1cc2cn[nH]c(=O)c2c(Nc2cnc3ccccc3c2)n1 [Example 2.11, 7-((1R,2S)-2-Amino-cyclohexylamino)-5-(quinolin-3-ylamino)-3H-pyrido[3,4-d]pyridazin-4-one]	8.27
N[C@H]1CCCC[C@H]1Nc1cc2cn[nH]c(=O)c2c(Nc2ccc3ncccc3c2)n1 [Example 2.5, 7-((1R,2S)-2-Amino-cyclohexylamino)-5-(quinolin-6-ylamino)-3H-pyrido[3,4-d]pyridazin-4-one]	8.80
N[C@H]1CCCC[C@H]1Nc1cc2cn[nH]c(=O)c2c(Nc2cccc3sccc23)n1 [Example 2.7, 7-((1R,2S)-2-Amino-cyclohexylamino)-5-(benzo[b]thiophen-4-ylamino)-3H-pyrido[3,4-d]pyridazin-4-one]	8.68
Cn1cc2c(Nc3nc(N[C@@H]4CCCC[C@@H]4N)cc4cn[nH]c(=O)c34)cccc2n1 [Example 2.3, 7-((1R,2S)-2-Amino-cyclohexylamino)-5-(2-methyl-2H-indazol-4-ylamino)-3H-pyrido[3,4-d]pyridazin-4-one]	8.96
N[C@H]1COCC[C@H]1Nc1cc2cn[nH]c(=O)c2c(Nc2cccc3sccc23)n1 [Example 3.2, 7-((3R,4R)-3-Amino-tetrahydro-pyran-4-ylamino)-5-(benzo[b]thiophen-4-ylamino)-3H-pyrido[3,4-d]pyridazin-4-one]	8.74
N[C@H]1CCCC[C@H]1Nc1cc2cn[nH]c(=O)c2c(Nc2cccc3occc23)n1 [Example 2.6, 7-((1R,2S)-2-Amino-cyclohexylamino)-5-(benzofuran-4-ylamino)-3H-pyrido[3,4-d]pyridazin-4-one]	8.70
N[C@H]1CCCC[C@H]1Nc1cc2cn[nH]c(=O)c2c(Nc2cccc3cc[nH]c23)n1 [Example 2.12, 7-((1R,2S)-2-Amino-cyclohexylamino)-5-(1H-indol-7-ylamino)-3H-pyrido[3,4-d]pyridazin-4-one]	8.15
Cc1c[nH]c2c(Nc3nc(N[C@@H]4CCOC[C@@H]4N)cc4cn[nH]c(=O)c34)cccc12 [Example 3.1, 7-((3R,4R)-3-Amino-tetrahydro-pyran-4-ylamino)-5-(3-methyl-1H-indol-7-ylamino)-3H-pyrido[3,4-d]pyridazin-4-one]	8.05
Cc1c[nH]c2c(Nc3nc(N[C@@H]4CCCC[C@@H]4N)cc4cn[nH]c(=O)c34)cccc12 [Example 2.1, 7-((1R,2S)-2-Amino-cyclohexylamino)-5-(3-methyl-1H-indol-7-ylamino)-3H-pyrido[3,4-d]pyridazin-4-one]	8.80
Cn1ccc2c(Nc3nc(N[C@@H]4CCCC[C@@H]4N)cc4cn[nH]c(=O)c34)cccc21 [Example 2.2, 7-((1R,2S)-2-Amino-cyclohexylamino)-5-(1-methyl-1H-indol-4-ylamino)-3H-pyrido[3,4-d]pyridazin-4-one]	9.22
N[C@H]1COCC[C@H]1Nc1cc2cn[nH]c(=O)c2c(Nc2cccc3cc[nH]c23)n1 [Example 3.4, 7-((3R,4R)-3-Amino-tetrahydro-pyran-4-ylamino)-5-(1H-indol-7-ylamino)-3H-pyrido[3,4-d]pyridazin-4-one]	7.49
N#Cc1c[nH]c2c(Nc3nc(N[C@@H]4CCCC[C@@H]4N)cc4cn[nH]c(=O)c34)cccc12 [Example 2.14, 7-[7-((1R,2S)-2-Amino-cyclohexylamino)-4-oxo-3,4-dihydro-pyrido[3,4-d]pyridazin-5-ylamino]-1H-indole-3-carbonitrile]	8.10
N[C@H]1CCCC[C@H]1Nc1cc2cn[nH]c(=O)c2c(Nc2cccc3ncccc23)n1 [Example 2.16, 7-((1R,2S)-2-Amino-cyclohexylamino)-5-(quinolin-5-ylamino)-3H-pyrido[3,4-d]pyridazin-4-one]	8.05
Cc1ccc(Nc2nc(N[C@@H]3CCCC[C@@H]3N)cc3cn[nH]c(=O)c23)c2cccnc12 [Example 2.13, 7-((1R,2S)-2-Amino-cyclohexylamino)-5-(8-methyl-quinolin-5-ylamino)-3H-pyrido[3,4-d]pyridazin-4-one]	8.15
N[C@H]1CCCC[C@H]1Nc1cc2cn[nH]c(=O)c2c(Nc2ccc3nccnc3c2)n1 [Example 2.18, 7-((1R,2S)-2-Amino-cyclohexylamino)-5-(quinoxalin-6-ylamino)-3H-pyrido[3,4-d]pyridazin-4-one]	7.59
N[C@H]1CCCC[C@H]1Nc1cc2cn[nH]c(=O)c2c(Nc2cccc3[nH]ccc23)n1 [Example 2.9, 7-((1R,2S)-2-Amino-cyclohexylamino)-5-(1H-indol-4-ylamino)-3H-pyrido[3,4-d]pyridazin-4-one]	8.57
Cc1c[nH]c2c(Nc3nc(N[C@@H]4CCOC[C@@H]4N)cc4cn[nH]c(=O)c34)cc(F)cc12 [Example 3.3, 7-((3R,4R)-3-Amino-tetrahydro-pyran-4-ylamino)-5-(5-fluoro-3-methyl-1H-indol-7-ylamino)-3H-pyrido[3,4-d]pyridazin-4-one]	8.70
N[C@H]1CCCC[C@H]1Nc1cc2cn[nH]c(=O)c2c(Nc2cccc3cccnc23)n1 [Example 2.20, 7-((1R,2S)-2-Amino-cyclohexylamino)-5-(quinolin-8-ylamino)-3H-pyrido[3,4-d]pyridazin-4-one]	7.35
Cc1c[nH]c2c(Nc3nc(N[C@@H]4CCCC[C@@H]4N)cc4cn[nH]c(=O)c34)cc(F)cc12 [Example 2.4, 7-((1R,2S)-2-Amino-cyclohexylamino)-5-(5-fluoro-3-methyl-1H-indol-7-ylamino)-3H-pyrido[3,4-d]pyridazin-4-one]	8.89
Cc1ccc2c(Nc3nc(N[C@@H]4CCCC[C@@H]4N)cc4cn[nH]c(=O)c34)cccc2n1 [Example 2.8, 7-((1R,2S)-2-Amino-cyclohexylamino)-5-(2-methyl-quinolin-5-ylamino)-3H-pyrido[3,4-d]pyridazin-4-one]	8.64
Cc1cc2c(Nc3nc(N[C@@H]4CCCC[C@@H]4N)cc4cn[nH]c(=O)c34)cccc2[nH]1 [Example 2.17, 7-((1R,2S)-2-Amino-cyclohexylamino)-5-(2-methyl-1H-indol-4-ylamino)-3H-pyrido[3,4-d]pyridazin-4-one]	7.80
